Values of other authors in PMC9516332 (Frontiers in Oncology, 2022).
Like-named read-outs stand apart in the source and are kept apart here.

Tests used:
Settings in all cases: cited from earlier work
[1] = biological target: panel of 255 wild-type kinases (Homo sapiens, UniProt P04626)
[2] = biological target: panel of 255 wild-type kinases (Homo sapiens, UniProt P08631)
[3] = biological target: panel of 255 wild-type kinases (Homo sapiens, UniProt P22612)
[4] = biological target: panel of 255 wild-type kinases (Homo sapiens, UniProt P29597)
[5] = biological target: panel of 255 wild-type kinases (Homo sapiens, UniProt P49840)
[6] = biological target: T1, panel of 255 wild-type kinases (Homo sapiens, UniProt P51955)
T1 sequence (P51955 1-445): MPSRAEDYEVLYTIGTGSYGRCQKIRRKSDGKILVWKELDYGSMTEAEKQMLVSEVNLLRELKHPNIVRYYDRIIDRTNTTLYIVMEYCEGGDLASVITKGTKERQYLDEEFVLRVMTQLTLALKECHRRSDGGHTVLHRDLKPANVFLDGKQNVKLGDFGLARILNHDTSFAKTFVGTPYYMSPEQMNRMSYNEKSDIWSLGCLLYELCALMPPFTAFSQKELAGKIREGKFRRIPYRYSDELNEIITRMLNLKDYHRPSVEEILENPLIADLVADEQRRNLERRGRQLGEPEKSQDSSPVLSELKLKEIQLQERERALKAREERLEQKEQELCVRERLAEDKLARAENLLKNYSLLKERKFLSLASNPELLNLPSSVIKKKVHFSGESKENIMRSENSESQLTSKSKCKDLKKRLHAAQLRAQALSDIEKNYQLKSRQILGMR

[7] = biological target: panel of 255 wild-type kinases (Homo sapiens, UniProt Q06187)
[8] = biological target: T2, panel of 255 wild-type kinases (Homo sapiens, UniProt Q08881)
T2 sequence (Q08881 1-620): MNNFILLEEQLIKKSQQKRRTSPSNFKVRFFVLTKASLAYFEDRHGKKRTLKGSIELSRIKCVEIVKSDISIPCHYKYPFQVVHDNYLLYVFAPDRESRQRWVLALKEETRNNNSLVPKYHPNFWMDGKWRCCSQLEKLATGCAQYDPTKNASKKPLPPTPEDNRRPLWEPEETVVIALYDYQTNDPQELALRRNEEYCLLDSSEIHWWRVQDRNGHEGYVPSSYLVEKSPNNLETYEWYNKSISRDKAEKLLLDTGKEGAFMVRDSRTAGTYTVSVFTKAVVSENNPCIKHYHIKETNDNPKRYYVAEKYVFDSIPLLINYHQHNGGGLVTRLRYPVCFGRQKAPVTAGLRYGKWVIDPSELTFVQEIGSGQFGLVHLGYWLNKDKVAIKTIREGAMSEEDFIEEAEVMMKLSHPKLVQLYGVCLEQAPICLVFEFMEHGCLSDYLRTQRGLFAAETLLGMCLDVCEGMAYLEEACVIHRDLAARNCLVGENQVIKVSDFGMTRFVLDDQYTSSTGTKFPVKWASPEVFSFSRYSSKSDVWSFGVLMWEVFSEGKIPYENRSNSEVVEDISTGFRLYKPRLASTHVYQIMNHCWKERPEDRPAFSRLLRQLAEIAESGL

[9] = biological target: T3, panel of 255 wild-type kinases (Homo sapiens, UniProt Q13188)
T3 sequence (Q13188 1-491): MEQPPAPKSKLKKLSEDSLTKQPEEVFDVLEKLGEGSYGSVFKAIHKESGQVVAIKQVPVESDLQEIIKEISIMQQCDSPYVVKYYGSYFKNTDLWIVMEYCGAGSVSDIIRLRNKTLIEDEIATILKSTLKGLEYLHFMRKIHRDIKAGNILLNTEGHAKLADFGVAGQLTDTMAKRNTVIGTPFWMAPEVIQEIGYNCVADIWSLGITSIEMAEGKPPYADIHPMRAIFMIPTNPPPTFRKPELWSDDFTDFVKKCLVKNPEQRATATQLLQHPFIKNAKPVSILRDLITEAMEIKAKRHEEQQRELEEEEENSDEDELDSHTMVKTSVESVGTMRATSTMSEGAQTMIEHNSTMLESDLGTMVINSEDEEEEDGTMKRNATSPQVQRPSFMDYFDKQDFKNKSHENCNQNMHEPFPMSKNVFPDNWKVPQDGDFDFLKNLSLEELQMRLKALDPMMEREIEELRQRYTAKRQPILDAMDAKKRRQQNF

[10] = biological target: panel of 255 wild-type kinases (Homo sapiens, UniProt Q14289)
[11] = biological target: panel of 255 wild-type kinases (Homo sapiens, UniProt Q9P1W9)
[12] = kinase HER2, 1 µmol/L single concentration, ref DOI: 10.1158/1535-7163.MCT-18-0877
[13] = kinase HCK, 1 µmol/L single concentration, ref DOI: 10.1158/1535-7163.MCT-18-0877
[14] = kinase PKACγ, 1 µmol/L single concentration, ref DOI: 10.1158/1535-7163.MCT-18-0877
[15] = kinase TYK2, 1 µmol/L single concentration, ref DOI: 10.1158/1535-7163.MCT-18-0877
[16] = kinase GSK3α, 1 µmol/L single concentration, ref DOI: 10.1158/1535-7163.MCT-18-0877
[17] = NEK2, 1 µmol/L single concentration, ref DOI: 10.1158/1535-7163.MCT-18-0877
[18] = BTK kinase assay, 1 µmol/L single concentration, ref DOI: 10.1158/1535-7163.MCT-18-0877
[19] = kinase ITK, 1 µmol/L single concentration, ref DOI: 10.1158/1535-7163.MCT-18-0877
[20] = MST2, 1 µmol/L single concentration, ref DOI: 10.1158/1535-7163.MCT-18-0877
[21] = kinase PYK2, 1 µmol/L single concentration, ref DOI: 10.1158/1535-7163.MCT-18-0877
[22] = kinase PIM2, 1 µmol/L single concentration, ref DOI: 10.1158/1535-7163.MCT-18-0877

Structure (SMILES) | %-inhibition at 1 µmol/L, HER2 [1, 12] [%] | %-inhibition at 1 µmol/L, HCK [2, 13] [%] | %-inhibition at 1 µmol/L, PKACγ [3, 14] [%] | %-inhibition at 1 µmol/L, TYK2 [4, 15] [%] | %-inhibition at 1 µmol/L, GSK3α [5, 16] [%] | %-inhibition, NEK2 [6, 17] [%] | %-inhibition BTK [7, 18] [%] | %-inhibition at 1 µmol/L, ITK [8, 19] [%] | %-inhibition, MST2 [9, 20] [%] | %-inhibition at 1 µmol/L, PYK2 [10, 21] [%] | %-inhibition at 1 µmol/L, PIM2 [11, 22] [%] | also measured
CC(=O)Nc1cccc(-n2c(=O)n(C3CC3)c(=O)c3c(Nc4ccc(I)cc4F)n(C)c(=O)c(C)c32)c1 [trametinib] |  |  |  |  |  |  |  |  |  |  |  | %-inhibition at 1 µmol/L, HER2 ([1]; kinase HER2, 1 µmol/L single concentration, ref DOI: 10.1371/journal.pone.0092146): -5.36%; %-inhibition at 1 µmol/L, HCK ([2]; kinase HCK, 1 µmol/L single concentration, ref DOI: 10.1371/journal.pone.0092146): -2.84%; %-inhibition at 1 µmol/L, PKACγ ([3]; kinase PKACγ, 1 µmol/L single concentration, ref DOI: 10.1371/journal.pone.0092146): 2%; %-inhibition at 1 µmol/L, TYK2 ([4]; kinase TYK2, 1 µmol/L single concentration, ref DOI: 10.1371/journal.pone.0092146): 2.16%; %-inhibition at 1 µmol/L, GSK3α ([5]; kinase GSK3α, 1 µmol/L single concentration, ref DOI: 10.1371/journal.pone.0092146): 1.59%; %-inhibition, NEK2 ([6]; NEK2, 1 µmol/L single concentration, ref DOI: 10.1371/journal.pone.0092146): 2.76%; %-inhibition BTK ([7]; BTK kinase assay, 1 µmol/L single concentration, ref DOI: 10.1371/journal.pone.0092146): 18%; %-inhibition at 1 µmol/L, ITK ([8]; kinase ITK, 1 µmol/L single concentration, ref DOI: 10.1371/journal.pone.0092146): -7.56%; %-inhibition, MST2 ([9]; MST2, 1 µmol/L single concentration, ref DOI: 10.1371/journal.pone.0092146): -3%; %-inhibition at 1 µmol/L, PYK2 ([10]; kinase PYK2, 1 µmol/L single concentration, ref DOI: 10.1371/journal.pone.0092146): 2.72%; %-inhibition at 1 µmol/L, PIM2 ([11]; kinase PIM2, 1 µmol/L single concentration, ref DOI: 10.1371/journal.pone.0092146): -4%
CC#CC(=O)N1CCC[C@H]1c1nc(-c2ccc(C(=O)Nc3ccccn3)cc2)c2c(N)nccn12 [acalabrutinib] | 16 | 0.452 | 1.68 | 13 | 2.47 | -6.35 | 95 | 0.871 | -3.46 | -3.55 | -17 | 
O=C(c1ccc(F)c(F)c1Nc1ccc(I)cc1F)N1CC(O)([C@@H]2CCCCN2)C1 [cobimetinib] | -1.21 | -3.63 | 4.37 | 6.35 | 3.42 | 6.62 | 4 | 4 | 1.8 | 2.5 | -4.45 | 
Cc1cc(Nc2ncc(Cl)c(Nc3ccccc3S(=O)(=O)C(C)C)n2)c(OC(C)C)cc1C1CCNCC1 [ceritinib] | 9 | 15 | 1.46 | 13 | 15 | 2 | -1.88 | 11 | 2.76 | 100 | -8 | 
COc1cc(N2CCC(N3CCN(C)CC3)CC2)ccc1Nc1ncc(Cl)c(Nc2ccccc2P(C)(C)=O)n1 [brigatinib] |  |  |  |  |  |  |  |  |  |  |  | %-inhibition at 1 µmol/L, HER2 [1]: 69%; %-inhibition at 1 µmol/L, HCK [2]: 78%; %-inhibition at 1 µmol/L, PKACγ [3]: 9%; %-inhibition at 1 µmol/L, TYK2 [4]: 23%; %-inhibition at 1 µmol/L, GSK3α [5]: 4%; %-inhibition, NEK2 [6]: 5.7%; %-inhibition BTK [7]: 54%; %-inhibition at 1 µmol/L, ITK [8]: 95%; %-inhibition, MST2 [9]: 20%; %-inhibition at 1 µmol/L, PYK2 [10]: 104%; %-inhibition at 1 µmol/L, PIM2 [11]: -11%
